pIC50: −log10 of the molar value.
Biological target: T1, CCR1 (Homo sapiens, UniProt P32246)
T1 sequence (P32246 1-355): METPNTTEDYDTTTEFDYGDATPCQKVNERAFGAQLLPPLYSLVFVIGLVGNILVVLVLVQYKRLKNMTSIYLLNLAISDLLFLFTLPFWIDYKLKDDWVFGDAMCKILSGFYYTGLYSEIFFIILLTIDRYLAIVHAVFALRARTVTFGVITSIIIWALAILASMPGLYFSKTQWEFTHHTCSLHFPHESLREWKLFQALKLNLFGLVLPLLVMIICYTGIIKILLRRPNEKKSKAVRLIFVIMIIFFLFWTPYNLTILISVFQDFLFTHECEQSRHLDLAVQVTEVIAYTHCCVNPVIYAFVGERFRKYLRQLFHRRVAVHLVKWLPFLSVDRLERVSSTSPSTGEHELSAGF
Experiment: Method B: calcium flux in CCR1 transfected cells (Calcium 4 dye, […] FDSS6000), block of the CCR1/MIP-1α interaction
Type: cell-based
Settings: Method B: Calcium 4 dye, MIP-1alpha at EC80
Procedure: Compounds are assessed for the ability to block the interaction of CCR1 and MIP-1α in a functional cellular assay measuring calcium flux in CCR1 transfected cells.
Method B: Non-adherent cells purchased from Chemicon Corporation (HTS005C), stably expressing recombinant CCR1 and G-alpha-16 are grown in RPMI 1640 medium (Mediatech 10-080-CM) supplemented with 10% FBS, 0.4 mg/mL Geneticin and penicillin/streptomycin. On the day of the assay, the cells are loaded with Calcium 4 dye (Molecular Devices R7448) with Probenecid (Invitrogen P346400) at 8E5 cells/mL for 1 hour at room temperature. After 1 hour, they are seeded in a 384-well tissue culture-treated plate at a density of 20,000 cells/well. Appropriately diluted test compound is added to the well to achieve a top concentration of 3,000 nM (diluted 4-fold with 10 doses total). The final concentration of DMSO is 1%. The buffer is HBSS (Invitrogen 14025) with 20 mM HEPES at pH 7.4. The cells incubate 30 minutes at 37 C and then 30 minutes at room temperature. The plates are transferred to the […] FDSS6000 where MIP-1alpha in 1% BSA is added at the EC80 final concentration. All plates must be read within 4 hours of the start of dye-loading. Wells+/−MIP-1alpha containing diluted DMSO instead of compound serve as the controls. Data are analyzed using Activity Base software.

pIC50	Structure (SMILES)
10.00	CCC[C@H](NC(=O)c1cncc2c1cnn2-c1ccc(F)cc1)c1ccnc(S(=O)(=O)CC)c1 [1-(4-Fluorophenyl)-1H-pyrazolo[3,4-c]pyridine-4-carboxylic acid [(S)-1-(2-ethanesulfonyl-pyridin-4-yl)-butyl]-amide]
8.70	CCS(=O)(=O)c1cc([C@H](C)NC(=O)c2cncc3c2cnn3-c2ccc(F)cc2)ccn1 [1-(4-Fluorophenyl)-1H-pyrazolo[3,4-c]pyridine-4-carboxylic acid [(S)-1-(2-ethanesulfonyl-pyridin-4-yl)-ethyl]-amide]
9.70	CC[C@H](NC(=O)c1cncc2c1cnn2-c1ccc(F)cc1)c1ccnc(S(=O)(=O)CC)c1 [1-(4-Fluorophenyl)-1H-pyrazolo[3,4-c]pyridine-4-carboxylic acid [(S)-1-(2-ethanesulfonyl-pyridin-4-yl)-propyl]-amide]
8.52	CC[C@H](NC(=O)c1cncc2c1cnn2-c1ccc(F)cc1)c1ccnc(CO)c1 [1-(4-Fluorophenyl)-1H-pyrazolo[3,4-c]pyridine-4-carboxylic acid [(S)-1-(2-hydroxymethyl-pyridin-4-yl)-propyl]-amide]
9.70	CC[C@H](NC(=O)c1cncc2c1cnn2-c1ccc(F)cc1)c1cc(NC(C)C)nc(S(C)(=O)=O)c1 [1-(4-Fluorophenyl)-1H-pyrazolo[3,4-c]pyridine-4-carboxylic acid [(S)-1-(2-isopropylamino-6-methanesulfonyl-pyridin-4-yl)-propyl]-amide]
9.30	CC[C@H](NC(=O)c1cncc2c1cnn2-c1ccc(F)cc1)c1ccnc([S+](C)[O-])c1 (stereo partly drawn) [1-(4-Fluorophenyl)-1H-pyrazolo[3,4-c]pyridine-4-carboxylic acid [(S)-1-(2-methanesulfinyl-pyridin-4-yl)-propyl]-amide]
9.40	COc1cc([C@H](C)NC(=O)c2cncc3c2cnn3-c2ccc(F)cc2)cc(S(C)(=O)=O)n1 [1-(4-Fluorophenyl)-1H-pyrazolo[3,4-c]pyridine-4-carboxylic acid [(S)-1-(2-methanesulfonyl-6-methoxy-pyridin-4-yl)-ethyl]-amide]
10.00	CC[C@H](NC(=O)c1cncc2c1cnn2-c1ccc(F)cc1)c1cc(OC)nc(S(C)(=O)=O)c1 [1-(4-Fluorophenyl)-1H-pyrazolo[3,4-c]pyridine-4-carboxylic acid [(S)-1-(2-methanesulfonyl-6-methoxy-pyridin-4-yl)-propyl]-amide]
9.40	CNc1cc([C@H](C)NC(=O)c2cncc3c2cnn3-c2ccc(F)cc2)cc(S(C)(=O)=O)n1 [1-(4-Fluorophenyl)-1H-pyrazolo[3,4-c]pyridine-4-carboxylic acid [(S)-1-(2-methanesulfonyl-6-methylamino-pyridin-4-yl)-ethyl]-amide]
9.52	CC[C@H](NC(=O)c1cncc2c1cnn2-c1ccc(F)cc1)c1cc(NC)nc(S(C)(=O)=O)c1 [1-(4-Fluorophenyl)-1H-pyrazolo[3,4-c]pyridine-4-carboxylic acid [(S)-1-(2-methanesulfonyl-6-methylamino-pyridin-4-yl)-propyl]-amide]
8.40	CC[C@H](NC(=O)c1cncc2c1cnn2-c1ccc(F)cc1)c1coc(S(C)(=O)=O)n1 [1-(4-Fluorophenyl)-1H-pyrazolo[3,4-c]pyridine-4-carboxylic acid [(S)-1-(2-methanesulfonyl-oxazol-4-yl)-propyl]-amide]
7.72	C[C@H](NC(=O)c1cncc2c1cnn2-c1ccc(F)cc1)c1cnc(S(C)(=O)=O)o1 [1-(4-Fluorophenyl)-1H-pyrazolo[3,4-c]pyridine-4-carboxylic acid [(S)-1-(2-methanesulfonyl-oxazol-5-yl)-ethyl]-amide]
8.52	CC[C@H](NC(=O)c1cncc2c1cnn2-c1ccc(F)cc1)c1cnc(S(C)(=O)=O)o1 [1-(4-Fluorophenyl)-1H-pyrazolo[3,4-c]pyridine-4-carboxylic acid [(S)-1-(2-methanesulfonyl-oxazol-5-yl)-propyl]-amide]

Reference: patent US8063065B2, “Azaindazole compounds as CCR1 receptor antagonists” (Boehringer Ingelheim International GmbH, priority 2008, dated 2011)
